{"source": "BindingDB's records for doi:10.1016/s0960-894x(97)10148-2", "about": "(Smithkline Beecham Pharmaceuticals, 1999)", "data": [{"molecular_target": "not listed separately", "experiment": "Tested for inhibition against CD23 (IgE receptor) proteolysis in membranes derived from RPM18866 cells (a human B-cell line)", "units": {"IC50": "µM"}, "values": [{"compound": "NC(=O)CC[C@H](CC(=O)NO)C(=O)N[C@@H](Cc1ccccc1)C(=O)NCc1ccccc1", "note": "[(R)-3-((S)-1-Benzylcarbamoyl-2-phenyl-ethylcarbamoyl)-hexanedioic acid 6-amide 1-hydroxyamide]", "IC50": "> 20"}, {"compound": "O=C(C[C@@H](O)C(=O)N[C@@H](Cc1ccccc1)C(=O)NCc1ccccc1)NO", "note": "[(R)-N*1*-((S)-1-Benzylcarbamoyl-2-phenyl-ethyl)-2,N*4*-dihydroxy-succinamide]", "IC50": "> 20"}, {"compound": "O=C(C[C@@H](CC1CCCCC1)C(=O)N[C@@H](Cc1ccccc1)C(=O)NCc1ccccc1)NO", "note": "[(R)-N*1*-((S)-1-Benzylcarbamoyl-2-phenyl-ethyl)-2-cyclohexylmethyl-N*4*-hydroxy-succinamide]", "IC50": 3.7}, {"compound": "O=C(C[C@@H](CC1CCCC1)C(=O)N[C@@H](Cc1ccccc1)C(=O)NCc1ccccc1)NO", "note": "[(R)-N*1*-((S)-1-Benzylcarbamoyl-2-phenyl-ethyl)-2-cyclopentylmethyl-N*4*-hydroxy-succinamide]", "IC50": 0.2}, {"compound": "CC(C)S[C@H](CC(=O)NO)C(=O)N[C@@H](Cc1ccccc1)C(=O)NCc1ccccc1", "note": "[(R)-N*1*-((S)-1-Benzylcarbamoyl-2-phenyl-ethyl)-N*4*-hydroxy-2-isopropylsulfanyl-succinamide]", "IC50": 8}, {"compound": "C[C@H](CC(=O)NO)C(=O)N[C@@H](Cc1ccccc1)C(=O)NCc1ccccc1", "note": "[(R)-N*1*-((S)-1-Benzylcarbamoyl-2-phenyl-ethyl)-N*4*-hydroxy-2-methyl-succinamide]", "IC50": "> 20"}, {"compound": "O=C(C[C@@H](CCc1ccccc1)C(=O)N[C@@H](Cc1ccccc1)C(=O)NCc1ccccc1)NO", "note": "[(R)-N*1*-((S)-1-Benzylcarbamoyl-2-phenyl-ethyl)-N*4*-hydroxy-2-phenethyl-succinamide]", "IC50": 5}, {"compound": "O=C(C[C@H](C(=O)N[C@@H](Cc1ccccc1)C(=O)NCc1ccccc1)c1ccc(-c2ccccc2)cc1)NO", "note": "[(S)-N*1*-((S)-1-Benzylcarbamoyl-2-phenyl-ethyl)-2-biphenyl-4-yl-N*4*-hydroxy-succinamide]", "IC50": "> 20"}, {"compound": "CN(C)C[C@H](CC(=O)NO)C(=O)N[C@@H](Cc1ccccc1)C(=O)NCc1ccccc1", "note": "[(S)-N*1*-((S)-1-Benzylcarbamoyl-2-phenyl-ethyl)-2-dimethylaminomethyl-N*4*-hydroxy-succinamide]", "IC50": "> 20"}, {"compound": "CC(C)C[C@@H](CC(=O)NO)C(=O)N[C@@H](Cc1ccccc1)C(=O)NCc1ccccc1", "note": "[(S)-N*1*-((S)-1-Benzylcarbamoyl-2-phenyl-ethyl)-N*4*-hydroxy-2-isobutyl-succinamide]", "IC50": "> 20"}, {"compound": "O=C(C[C@H](C(=O)N[C@@H](Cc1ccccc1)C(=O)NCc1ccccc1)c1cccc2ccccc12)NO", "note": "[(S)-N*1*-((S)-1-Benzylcarbamoyl-2-phenyl-ethyl)-N*4*-hydroxy-2-naphthalen-1-yl-succinamide]", "IC50": "> 20"}, {"compound": "O=C(C[C@H](C(=O)N[C@@H](Cc1ccccc1)C(=O)NCc1ccccc1)c1ccccc1)NO", "note": "[(S)-N*1*-((S)-1-Benzylcarbamoyl-2-phenyl-ethyl)-N*4*-hydroxy-2-phenyl-succinamide]", "IC50": 1.6}, {"compound": "O=C(CCC(=O)N[C@@H](Cc1ccccc1)C(=O)NCc1ccccc1)NO", "note": "[N-((S)-1-Benzylcarbamoyl-2-phenyl-ethyl)-N'-hydroxy-succinamide]", "IC50": "> 20"}]}, {"molecular_target": "T1, Low affinity immunoglobulin epsilon Fc receptor (Homo sapiens, UniProt P06734)", "T1 sequence (P06734 whole entry)": "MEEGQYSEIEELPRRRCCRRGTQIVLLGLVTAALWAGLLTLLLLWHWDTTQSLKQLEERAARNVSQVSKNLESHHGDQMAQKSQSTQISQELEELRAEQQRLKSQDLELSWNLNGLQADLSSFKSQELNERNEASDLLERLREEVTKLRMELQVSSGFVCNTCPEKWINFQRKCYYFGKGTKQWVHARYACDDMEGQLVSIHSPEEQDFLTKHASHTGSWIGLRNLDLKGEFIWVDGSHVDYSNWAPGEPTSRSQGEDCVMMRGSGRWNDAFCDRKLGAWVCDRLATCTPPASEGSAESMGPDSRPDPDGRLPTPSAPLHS", "experiment": "ChEBML_41676", "source_text": "(§1) Tested for inhibition against CD23 (IgE receptor) proteolysis in membranes derived from RPM18866 cells ( a human B-cell line); value ranges from 5-10", "units": {"IC50": "µM"}, "values": [{"compound": "CC(C)SC[C@H](CC(=O)NO)C(=O)N[C@@H](Cc1ccccc1)C(=O)NCc1ccccc1", "note": "[(R)-N*1*-((S)-1-Benzylcarbamoyl-2-phenyl-ethyl)-N*4*-hydroxy-2-isopropylsulfanylmethyl-succinamide]", "IC50": 8}, {"compound": "O=C(C[C@@H](Cc1ccc2ccccc2c1)C(=O)N[C@@H](Cc1ccccc1)C(=O)NCc1ccccc1)NO", "note": "[(R)-N*1*-((S)-1-Benzylcarbamoyl-2-phenyl-ethyl)-N*4*-hydroxy-2-naphthalen-2-ylmethyl-succinamide]", "IC50": 1}]}, {"molecular_target": "T1, Low affinity immunoglobulin epsilon Fc receptor", "experiment": "as §1", "units": {"IC50": "µM"}, "values": [{"compound": "O=C(C[C@H](C(=O)N[C@@H](Cc1ccccc1)C(=O)NCc1ccccc1)C1CCCCC1)NO", "note": "[(S)-N*1*-((S)-1-Benzylcarbamoyl-2-phenyl-ethyl)-2-cyclohexyl-N*4*-hydroxy-succinamide]", "IC50": 5}]}]}
